Assay results from ChEMBL document CHEMBL2074434, “Interaction of cytochrome P450 3A inhibitors with P-glycoprotein” (J Pharmacol Exp Ther, 2002).

Tests used:
[1] = target: T1, ATP-dependent translocase ABCB1 (Mus musculus, UniProt P21447); experiment: TP_TRANSPORTER: increase in Calcein-AM intracellular accumulation in mdr1a-expressing LLC-PK1 cells; assay type: functional, cell-based
[2] = target: ATP-dependent translocase ABCB1 (Mus musculus, UniProt P06795); experiment: TP_TRANSPORTER: increase in Calcein-AM intracellular accumulation in mdr1b-expressing LLC-PK1 cells; assay type: functional, cell-based
[3] = target: ATP-dependent translocase ABCB1 (Homo sapiens, UniProt P08183); experiment: TP_TRANSPORTER: transepithelial transport (basal to apical) in MDR1-expressing LLC-PK1 cells; assay type: functional, cell-based; conditions: pig
[4] = target: T1, ATP-dependent translocase ABCB1; experiment: TP_TRANSPORTER: increase in kidney concentration in mdr1a(-/-) mouse; assay type: functional, organism-based; conditions: in vivo
[5] = target: T1, ATP-dependent translocase ABCB1; experiment: TP_TRANSPORTER: transepithelial transport (basal to apical) in mdr1a-expressing LLC-PK1 cell; assay type: functional, cell-based; conditions: pig
[6] = target: T1, ATP-dependent translocase ABCB1; experiment: TP_TRANSPORTER: no influence on tissue distribution in mdr1a(-/-) mouse; assay type: functional, organism-based; conditions: in vivo
[7] = target: T1, ATP-dependent translocase ABCB1; experiment: TP_TRANSPORTER: increase in spleen concentration in mdr1a(-/-) mouse; assay type: functional, organism-based; conditions: in vivo
[8] = target: T1, ATP-dependent translocase ABCB1; experiment: TP_TRANSPORTER: increase in lung concentration in mdr1a(-/-) mouse; assay type: functional, organism-based; conditions: in vivo
[9] = target: T1, ATP-dependent translocase ABCB1; experiment: TP_TRANSPORTER: increase in liver concentration in mdr1a(-/-) mouse; assay type: functional, organism-based; conditions: in vivo
[10] = target: T1, ATP-dependent translocase ABCB1; experiment: TP_TRANSPORTER: increase in heart concentration in mdr1a(-/-) mouse; assay type: functional, organism-based; conditions: in vivo

Sequence of ATP-dependent translocase ABCB1 (Mus musculus, UniProt P06795) (P06795 whole entry): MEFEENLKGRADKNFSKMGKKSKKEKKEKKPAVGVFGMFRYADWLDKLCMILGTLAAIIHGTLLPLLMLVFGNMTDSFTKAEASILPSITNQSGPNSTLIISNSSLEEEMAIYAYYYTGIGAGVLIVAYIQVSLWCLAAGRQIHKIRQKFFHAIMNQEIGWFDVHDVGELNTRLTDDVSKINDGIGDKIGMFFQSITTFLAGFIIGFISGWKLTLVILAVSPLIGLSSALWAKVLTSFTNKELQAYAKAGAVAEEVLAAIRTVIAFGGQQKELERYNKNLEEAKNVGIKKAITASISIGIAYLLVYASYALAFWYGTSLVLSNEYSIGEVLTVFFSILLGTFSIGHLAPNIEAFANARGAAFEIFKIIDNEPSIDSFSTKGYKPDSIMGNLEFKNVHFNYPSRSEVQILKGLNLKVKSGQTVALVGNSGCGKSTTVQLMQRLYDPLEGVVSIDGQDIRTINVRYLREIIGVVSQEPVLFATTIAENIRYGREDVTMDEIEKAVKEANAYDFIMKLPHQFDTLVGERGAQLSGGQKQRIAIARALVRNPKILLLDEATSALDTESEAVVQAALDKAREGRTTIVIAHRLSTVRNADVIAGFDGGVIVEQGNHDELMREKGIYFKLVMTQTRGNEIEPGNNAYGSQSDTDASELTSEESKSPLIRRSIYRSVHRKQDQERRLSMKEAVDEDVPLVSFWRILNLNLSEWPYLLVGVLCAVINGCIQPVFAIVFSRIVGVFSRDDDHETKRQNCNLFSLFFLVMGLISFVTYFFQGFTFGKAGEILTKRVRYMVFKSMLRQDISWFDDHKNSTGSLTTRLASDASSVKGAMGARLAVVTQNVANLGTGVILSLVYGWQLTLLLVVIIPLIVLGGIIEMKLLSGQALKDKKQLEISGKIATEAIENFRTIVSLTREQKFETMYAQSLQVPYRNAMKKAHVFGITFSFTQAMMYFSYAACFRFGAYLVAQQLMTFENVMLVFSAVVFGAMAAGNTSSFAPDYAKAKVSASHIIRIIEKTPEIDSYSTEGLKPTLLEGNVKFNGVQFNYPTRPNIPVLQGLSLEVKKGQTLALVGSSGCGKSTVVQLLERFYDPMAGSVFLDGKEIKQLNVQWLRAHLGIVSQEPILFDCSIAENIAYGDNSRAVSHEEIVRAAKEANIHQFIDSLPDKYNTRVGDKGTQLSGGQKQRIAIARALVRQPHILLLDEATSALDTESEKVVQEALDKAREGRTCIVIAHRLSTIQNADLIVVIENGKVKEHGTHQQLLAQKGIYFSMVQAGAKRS
T1 sequence (P21447 whole entry): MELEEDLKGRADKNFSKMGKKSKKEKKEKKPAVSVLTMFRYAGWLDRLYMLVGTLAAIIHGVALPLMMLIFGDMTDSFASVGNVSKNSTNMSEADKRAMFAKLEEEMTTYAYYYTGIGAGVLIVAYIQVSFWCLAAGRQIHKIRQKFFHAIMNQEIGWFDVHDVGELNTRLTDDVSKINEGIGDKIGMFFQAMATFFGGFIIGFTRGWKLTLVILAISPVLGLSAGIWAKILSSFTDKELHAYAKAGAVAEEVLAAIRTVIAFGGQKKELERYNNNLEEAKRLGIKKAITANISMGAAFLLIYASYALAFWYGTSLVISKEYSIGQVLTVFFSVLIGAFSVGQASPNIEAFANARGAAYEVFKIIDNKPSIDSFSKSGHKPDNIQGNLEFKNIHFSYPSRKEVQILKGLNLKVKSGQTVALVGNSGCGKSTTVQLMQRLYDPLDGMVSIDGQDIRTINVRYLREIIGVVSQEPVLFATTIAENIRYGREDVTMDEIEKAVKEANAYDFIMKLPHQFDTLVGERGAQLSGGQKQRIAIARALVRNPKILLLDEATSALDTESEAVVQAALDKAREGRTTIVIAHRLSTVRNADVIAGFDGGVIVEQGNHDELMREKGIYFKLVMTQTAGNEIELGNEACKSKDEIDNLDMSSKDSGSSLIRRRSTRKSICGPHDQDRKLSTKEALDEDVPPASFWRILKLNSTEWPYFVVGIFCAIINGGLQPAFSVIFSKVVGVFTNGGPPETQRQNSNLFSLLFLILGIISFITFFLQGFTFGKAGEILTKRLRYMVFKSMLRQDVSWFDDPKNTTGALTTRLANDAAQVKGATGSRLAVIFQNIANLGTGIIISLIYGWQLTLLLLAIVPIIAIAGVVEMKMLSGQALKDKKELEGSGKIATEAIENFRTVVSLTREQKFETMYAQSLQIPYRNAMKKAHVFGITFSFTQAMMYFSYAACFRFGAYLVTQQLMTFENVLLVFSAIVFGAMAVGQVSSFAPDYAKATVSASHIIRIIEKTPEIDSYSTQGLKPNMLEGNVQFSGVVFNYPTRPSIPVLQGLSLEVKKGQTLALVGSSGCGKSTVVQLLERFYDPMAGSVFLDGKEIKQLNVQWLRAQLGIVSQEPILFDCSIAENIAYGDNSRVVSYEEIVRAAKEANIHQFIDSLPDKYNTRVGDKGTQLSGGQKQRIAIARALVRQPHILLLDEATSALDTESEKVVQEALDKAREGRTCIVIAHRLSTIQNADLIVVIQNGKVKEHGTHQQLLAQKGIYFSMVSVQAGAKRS
Sequence of ATP-dependent translocase ABCB1 (Homo sapiens, UniProt P08183) (P08183 whole entry): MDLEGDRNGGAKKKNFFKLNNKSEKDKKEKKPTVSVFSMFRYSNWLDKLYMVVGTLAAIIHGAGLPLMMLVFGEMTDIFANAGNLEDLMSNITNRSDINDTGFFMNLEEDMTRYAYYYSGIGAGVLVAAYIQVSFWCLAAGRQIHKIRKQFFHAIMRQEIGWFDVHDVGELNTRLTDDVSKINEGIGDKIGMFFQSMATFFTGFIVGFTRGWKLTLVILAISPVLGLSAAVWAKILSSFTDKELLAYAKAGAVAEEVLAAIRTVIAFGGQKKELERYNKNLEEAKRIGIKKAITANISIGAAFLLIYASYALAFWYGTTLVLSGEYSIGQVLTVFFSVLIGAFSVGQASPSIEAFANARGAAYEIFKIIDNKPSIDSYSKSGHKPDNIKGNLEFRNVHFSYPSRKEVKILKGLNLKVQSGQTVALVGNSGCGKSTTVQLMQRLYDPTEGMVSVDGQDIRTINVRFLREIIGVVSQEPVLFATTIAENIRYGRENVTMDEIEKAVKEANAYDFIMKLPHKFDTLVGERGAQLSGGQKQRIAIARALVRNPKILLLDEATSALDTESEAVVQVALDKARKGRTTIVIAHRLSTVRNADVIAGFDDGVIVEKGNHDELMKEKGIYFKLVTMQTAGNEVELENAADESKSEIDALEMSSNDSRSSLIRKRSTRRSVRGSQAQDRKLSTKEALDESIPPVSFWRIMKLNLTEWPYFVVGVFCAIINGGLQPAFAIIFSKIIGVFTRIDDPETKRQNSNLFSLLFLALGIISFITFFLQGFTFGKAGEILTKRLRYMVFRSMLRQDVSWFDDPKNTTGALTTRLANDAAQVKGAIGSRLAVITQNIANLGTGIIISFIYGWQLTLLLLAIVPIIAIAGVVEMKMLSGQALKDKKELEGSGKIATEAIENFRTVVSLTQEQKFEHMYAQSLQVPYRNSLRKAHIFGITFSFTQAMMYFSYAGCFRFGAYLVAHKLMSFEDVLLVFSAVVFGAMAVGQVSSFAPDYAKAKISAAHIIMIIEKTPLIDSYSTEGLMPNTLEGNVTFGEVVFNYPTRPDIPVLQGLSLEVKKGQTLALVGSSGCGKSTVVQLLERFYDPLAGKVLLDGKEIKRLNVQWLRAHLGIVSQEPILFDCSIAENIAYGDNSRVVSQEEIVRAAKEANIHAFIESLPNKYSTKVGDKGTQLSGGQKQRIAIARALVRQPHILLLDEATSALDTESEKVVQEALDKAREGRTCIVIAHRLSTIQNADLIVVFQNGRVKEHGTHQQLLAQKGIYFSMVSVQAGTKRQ

Row | SMILES | Ki [1] [µM] | Ki [2] [µM] | further results
1 | CC(C)C[C@H]1C(=O)N2CCC[C@H]2[C@]2(O)O[C@](NC(=O)[C@@H]3C=C4c5cccc6[nH]c(Br)c(c56)C[C@H]4N(C)C3)(C(C)C)C(=O)N12 [BROMOCRIPTINE] | 7.48 | 6.39 | 
2 | Clc1ccccc1C(c1ccccc1)(c1ccccc1)n1ccnc1 [CLOTRIMAZOLE] | 18.3 | 25.1 | 
3 | CC(C)[C@@]1(NC(=O)[C@@H]2C[C@@H]3c4cccc5[nH]cc(c45)C[C@H]3N(C)C2)O[C@@]2(O)[C@@H]3CCCN3C(=O)[C@H](Cc3ccccc3)N2C1=O [DIHYDROERGOCRISTINE] | 111 | 167 | Activity [3]: substrate [+]
4 | CC(C)C[C@H]1C(=O)N2CCC[C@H]2[C@]2(O)O[C@](NC(=O)[C@@H]3C[C@@H]4c5cccc6[nH]cc(c56)C[C@H]4N(C)C3)(C(C)C)C(=O)N12 [DIHYDROERGOCRYPTINE] | 333 | 160 | Activity [4]: substrate [+]; Activity [5]: substrate [+]
5 | CN1C[C@H](C(=O)N[C@]2(C)O[C@@]3(O)[C@@H]4CCCN4C(=O)[C@H](Cc4ccccc4)N3C2=O)C[C@@H]2c3cccc4[nH]cc(c34)C[C@H]21 [DIHYDROERGOTAMINE] | > 1000 | > 1000 | 
6 | CC(C)[C@H]1C(=O)N2CCC[C@H]2[C@]2(O)O[C@](NC(=O)[C@@H]3C=C4c5cccc6[nH]cc(c56)C[C@H]4N(C)C3)(C(C)C)C(=O)N12 [ERGOCORNINE] | 272 | 19.1 | 
7 | CC(C)[C@@]1(NC(=O)[C@@H]2C=C3c4cccc5[nH]cc(c45)C[C@H]3N(C)C2)O[C@@]2(O)[C@@H]3CCCN3C(=O)[C@H](Cc3ccccc3)N2C1=O [ERGOCRISTINE] | 39.4 | 15.3 | 
8 | CC(C)C[C@H]1C(=O)N2CCC[C@H]2[C@]2(O)O[C@](NC(=O)[C@@H]3C=C4c5cccc6[nH]cc(c56)C[C@H]4N(C)C3)(C(C)C)C(=O)N12 [ERGOCRYPTINE] | 43.5 | 26.9 | 
9 | C[C@@H](CO)NC(=O)[C@@H]1C=C2c3cccc4[nH]cc(c34)C[C@H]2N(C)C1 [ERGONOVINE] | 118 | > 1000 | 
10 | CN1C[C@H](C(=O)N[C@]2(C)O[C@@]3(O)[C@@H]4CCCN4C(=O)[C@H](Cc4ccccc4)N3C2=O)C=C2c3cccc4[nH]cc(c34)C[C@H]21 [ERGOTAMINE] | 189 | 18 | 
11 | CC[C@H]1OC(=O)[C@H](C)[C@@H](O[C@H]2C[C@@](C)(OC)[C@@H](O)[C@H](C)O2)[C@H](C)[C@@H](O[C@@H]2O[C@H](C)C[C@H](N(C)C)[C@H]2O)[C@](C)(O)C[C@@H](C)C(=O)[C@H](C)[C@@H](O)[C@]1(C)O [ERYTHROMYCIN] | > 1000 |  | 
12 | OC(Cn1cncn1)(Cn1cncn1)c1ccc(F)cc1F [FLUCONAZOLE] | > 1000 | > 1000 | Activity [3]: is not a substrate [-]; Activity [6]: is not a substrate [-]; Activity [5]: substrate [+]
13 | Clc1ccc(COC(Cn2ccnc2)c2ccc(Cl)cc2Cl)c(Cl)c1 (stereo not given) [MICONAZOLE] | 22.2 |  | 
14 | COC(=O)[C@H]1[C@H]2C[C@@H]3c4[nH]c5cc(OC)ccc5c4CCN3C[C@H]2C[C@@H](OC(=O)c2cc(OC)c(OC)c(OC)c2)[C@@H]1OC [RESERPINE] | 4.03 | 17.9 | Activity [4]: substrate [+]; Activity [7]: substrate [+]; Activity [8]: substrate [+]; Activity [9]: substrate [+]; Activity [10]: substrate [+]; Activity [5]: substrate [+]
15 | CO[C@H]1C[C@H](O[C@H]2[C@H](C)[C@@H](O[C@@H]3O[C@H](C)C[C@H](N(C)C)[C@H]3OC(C)=O)[C@@H](C)C[C@@]3(CO3)C(=O)[C@H](C)[C@@H](OC(C)=O)[C@@H](C)[C@@H](C)OC(=O)[C@@H]2C)O[C@@H](C)[C@@H]1OC(C)=O [TROLEANDOMYCIN] | 217 | > 1000 | 
